{"source": "PubChem BioAssay AID652153", "about": "(Molecular Libraries Program, Specialized Chemistry Center, …, 2013)", "note": "Active and inactive are the calls of the source. No rule for the calls is given here."}
{"target": "Rac GTPase-activating protein 1 (Homo sapiens) (UniProt Q9H0H5)", "sequence (Q9H0H5 whole entry, looked up)": "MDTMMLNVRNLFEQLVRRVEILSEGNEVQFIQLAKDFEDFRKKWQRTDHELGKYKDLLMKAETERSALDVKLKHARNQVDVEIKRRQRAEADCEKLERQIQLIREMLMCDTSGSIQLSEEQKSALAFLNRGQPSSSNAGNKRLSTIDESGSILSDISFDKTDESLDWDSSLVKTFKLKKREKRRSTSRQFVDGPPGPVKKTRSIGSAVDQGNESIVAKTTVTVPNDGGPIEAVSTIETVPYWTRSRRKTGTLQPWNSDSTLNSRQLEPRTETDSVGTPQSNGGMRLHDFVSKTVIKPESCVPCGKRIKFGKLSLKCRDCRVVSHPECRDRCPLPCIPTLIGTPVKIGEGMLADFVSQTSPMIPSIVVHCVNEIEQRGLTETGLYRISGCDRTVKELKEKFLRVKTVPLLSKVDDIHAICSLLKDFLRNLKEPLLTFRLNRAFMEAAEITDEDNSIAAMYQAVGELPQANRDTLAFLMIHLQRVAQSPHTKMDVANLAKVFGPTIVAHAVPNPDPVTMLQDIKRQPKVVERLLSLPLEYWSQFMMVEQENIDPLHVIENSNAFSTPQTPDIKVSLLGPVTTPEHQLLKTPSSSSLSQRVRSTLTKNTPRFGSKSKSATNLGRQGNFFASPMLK", "assay": "MgcRacGAP inhibitors, selectivity among RhoGAPs, dose response, selectivity assay, biochemical (AID 652153)", "details": "MgcRacGAP GAP activity on Rac1F28L, Biomol green phosphate"}
{"smiles": "O=c1c2ccccc2sn1-c1cccc(Cl)c1", "IC50": "690 nM"}
{"smiles": "COc1ccc(NC2CCCN(C(=O)C3(C)CCCCC3)C2)cc1", "note": "(stereo unspecified)", "IC50": "inactive"}
{"smiles": "CN(C)c1nc(=NCc2cccs2)ss1", "IC50": "inactive"}
{"smiles": "O=c1c2cc(F)ccc2sn1-c1ccccc1", "IC50": "inactive"}
{"smiles": "CC1OC(CC(=O)O)CC2=C1C(=O)c1c(O)cccc1C2=O", "note": "(stereo unspecified)", "IC50": "inactive"}
{"smiles": "CN(C)c1ccc(/C=C/c2cc[n+](C)c3ccccc23)cc1", "IC50": "inactive"}
{"smiles": "O=C(Nc1ccccc1Cl)/C(Cl)=C(\\Cl)S(=O)c1ccccc1", "note": "(stereo unspecified)", "IC50": "inactive"}
{"smiles": "O=C1C=CC(=O)c2c(O)c(N3CCN(CCO)CC3)c(Cl)c(O)c21", "IC50": "inactive"}
{"smiles": "Cc1ccc(C)c(-n2sc3ccc(F)cc3c2=O)c1", "IC50": "inactive"}
{"smiles": "O=C1C(=Cc2ccco2)CCC1=Cc1ccco1", "IC50": "inactive"}
{"smiles": "COc1ccc(/C=N/Nc2cc(C)nc3ccc(OC)cc23)c(OC)c1", "IC50": "inactive"}
{"smiles": "C[n+]1c(-c2ccc(C=NNC(=O)c3ccc(C(=O)NN=Cc4ccc(-c5cn6ccccc6[n+]5C)cc4)cc3)cc2)cn2ccccc21", "IC50": "inactive"}
{"smiles": "CCN1CCN(Cc2ccc(NC(=O)c3ccc(C)c(/C=C/c4cnc(Nc5cc(N6CCNCC6)nc(C)n5)cn4)c3)cc2C(F)(F)F)CC1", "IC50": "inactive"}
{"smiles": "Cc1c(Cl)sn(-c2ccc(Cl)cc2)c1=O", "IC50": "inactive"}
{"smiles": "CSc1nc(N)c(N=Nc2ccc([As](=O)(O)O)cc2)c(=O)[nH]1", "IC50": "inactive"}
{"smiles": "Cc1ccc(-n2sc3cc(F)ccc3c2=O)c(C)c1", "IC50": "inactive"}
{"smiles": "O=C(O)c1cc(N2N=C(C(F)(F)F)/C(=C/C=C/c3ccco3)C2=O)ccc1Cl", "IC50": "inactive"}
{"smiles": "O=C1C=CC(=O)c2c(O)c(N3CCN(CCOCCO)CC3)c(Br)c(O)c21", "IC50": "inactive"}
{"smiles": "COc1ccc(-n2sc3ccc(F)cc3c2=O)cc1", "IC50": "inactive"}
{"smiles": "COc1ccc(-n2sc3ccccc3c2=O)cc1", "IC50": "inactive"}
{"smiles": "COc1ccc(Nc2ccc3ccccc3c2)cc1", "IC50": "inactive"}
{"smiles": "O=c1c2ccc(F)cc2sn1-c1ccccc1", "IC50": "inactive"}
{"smiles": "CN(C)c1ccc(C=c2c3cc(O)ccc3n3c2cc(-c2ccccc2)[n+]3C)cc1", "IC50": "inactive"}
{"smiles": "O=c1c2ccccc2sn1-c1ccccc1F", "IC50": "inactive"}
{"smiles": "O=C1NC(=S)N(c2ccccc2)C(=O)/C1=C/c1ccco1", "IC50": "inactive"}
{"smiles": "O=C(O)c1cccc(-n2sc3ccccc3c2=O)c1", "IC50": "inactive"}
{"smiles": "Cc1cc(C)c2c(=N)c3ccccc3n(CCCCCCCCn3c4ccccc4c(=N)c4c(C)cc(C)nc43)c2n1", "IC50": "inactive"}
{"smiles": "CCN(CC)c1ccc(C(=C2C=CC(=[N+](CC)CC)C=C2)c2ccc(N(CC)CC)cc2)cc1", "IC50": "inactive"}
{"smiles": "O=c1c2ccccc2sn1-c1ccc(Cl)cc1", "IC50": "inactive"}
{"smiles": "O=c1c2ccccc2sn1-c1ccc(F)cc1", "IC50": "inactive"}
{"smiles": "Cn1ccc(=Nc2ccc(NC(=O)c3ccc(N=c4ccn(C)c5ccc([N+](=O)[O-])cc45)cc3)cc2)cc1", "IC50": "939 nM"}
{"smiles": "Nc1n[nH]c(=S)n1/N=C1/C(=O)Nc2ccccc21", "IC50": "inactive"}
{"smiles": "O=C1C(SCCO)=C(SCCO)C(=O)c2ccccc21", "IC50": "inactive"}
{"smiles": "CN(C)c1ncc(C2=C(Cl)C(=O)C(N3CCCC3)=C(Cl)C2=O)s1", "IC50": "inactive"}
{"smiles": "Nc1ccc(OCc2ccco2)cc1", "IC50": "inactive"}
{"smiles": "O=c1c2ccccc2sn1-c1ccc(Cl)cc1Cl", "IC50": "inactive"}
{"smiles": "O=C1C(Cl)=C(NC(=O)c2ccccc2)C(=O)C(Cl)=C1NC(=O)c1ccccc1", "IC50": "inactive"}
{"smiles": "CC1=NNC(=O)C1Br", "note": "(stereo unspecified)", "IC50": "inactive"}
{"smiles": "O=c1c2cc(F)ccc2sn1-c1ccccc1Cl", "IC50": "920 nM"}
{"smiles": "O=C(O)C1CSC(c2ccco2)N1", "note": "(stereo unspecified)", "IC50": "inactive"}
{"smiles": "O=C(O)c1cc(N2C(=O)C=CC2=O)cc(N2C(=O)C=CC2=O)c1", "IC50": "inactive"}
{"smiles": "CC(=O)Nc1ccc2sn(-c3ccccc3)c(=O)c2c1", "IC50": "643 nM"}
{"smiles": "Cc1cc(N)c2cc(NC(=O)/C=C/c3ccccc3Cl)ccc2n1", "IC50": "inactive"}
{"smiles": "O=C1C=CC(=O)N1c1ccccc1N1C(=O)C=CC1=O", "IC50": "inactive"}
{"smiles": "COC(=O)c1cccc(-n2sc3ccccc3c2=O)c1", "IC50": "inactive"}
{"smiles": "O=c1c2sc3ccccc3c2[nH]c(=S)n1CCN1CCOCC1", "IC50": "inactive"}
